As a reminder, the IC50 is the concentration that gives 50% inhibition. As a reminder, the inhibition is the change of the read-out against control, counted positive when it falls. One may read the ΔTm as the shift of the melting midpoint relative to a reference.

Calls of active or inactive are those of the source. No cut-off for these calls is given here. A value given as a limit tells only on which side of the number the result lay.

Data on 28 compounds can be found in ChEMBL document CHEMBL5390296, “N-Biphenyl Pyrrolinones and Dibenzofurans as RNA-Binding Protein LIN28 Inhibitors Disrupting the LIN28-Let-7 Interaction” (ACS Med Chem Lett, 2023).

A short description of test [1]: Inhibition of LIN28A (16 to 187 residues) (unknown origin) expressed in Escherichia coli BL21(DE3)/mouse let-7 interaction incubated for 15 mins in presence of Cy-3-fluorophore labeled RNA by electrophoretic mobility shift assay. For orientation: A gel shift assay detects complexes by their altered migration in electrophoresis.
Test [2] can be described thus: Inhibition of LIN28A (16 to 187 residues) (unknown origin) expressed in Escherichia coli BL21(DE3)/mouse let-7 interaction at 75 uM incubated for 15 mins in presence of Cy-3-fluorophore labeled RNA by electrophoretic mobility shift assay relative to control.
The target of test [3] is T1, Protein lin-28 homolog A (Homo sapiens) (UniProt Q9H9Z2).
T1 sequence (whole entry): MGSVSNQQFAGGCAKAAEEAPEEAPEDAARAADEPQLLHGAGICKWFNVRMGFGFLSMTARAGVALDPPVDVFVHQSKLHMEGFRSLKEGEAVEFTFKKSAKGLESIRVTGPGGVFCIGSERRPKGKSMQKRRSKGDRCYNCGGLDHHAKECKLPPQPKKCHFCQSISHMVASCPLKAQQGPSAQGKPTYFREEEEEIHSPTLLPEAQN
The experiment in a line: Inhibition of recombinant LIN28A CSD (16 to 126 residues) (unknown origin) assessed as increase in thermal stability at 75 uM incubated for 45 mins by nano differential scanning fluorimetry analysis. (In general: Differential scanning fluorimetry follows unfolding on heating by fluorescence.)

For test [4], the system named is JAR. Put plainly: Inhibition of let-7d miRNA biogenesis in human JAR cells incubated for 24 hrs by qPCR analysis. The class given is functional, cell-based. The following applies: dose 5-20 µM. (Real-time PCR tracks product formation cycle by cycle.)
Test [5] can be described thus: Inhibition of let-7d miRNA biogenesis in human JAR cells assessed as fold increase in mature […] at 5 to 20 uM incubated for 24 hrs by qPCR analysis. The following applies: dose 5-20 µM. The class given is functional.
Test [6] relates to let-7i miRNA. The experiment in a line: Inhibition of let-7i miRNA biogenesis in human JAR cells incubated for 24 hrs by qPCR analysis. Format: functional, cell-based. The following applies: dose 5-20 µM.
Test [7] addresses T1, Protein lin-28 homolog A (Homo sapiens). Put plainly: Binding affinity to recombinant LIN28A CSD (16 to 126 residues) (unknown origin) by biolayer interferometry analysis. The following applies: dose 1.56-100 µM.
Test [8] concerns let-7i miRNA. Put plainly: Inhibition of let-7i miRNA biogenesis in human JAR cells assessed as fold increase in mature […] at 5 to 20 uM incubated for 24 hrs by qPCR analysis. The following applies: dose 5-20 µM. Format: functional, cell-based.
The species named for test [9] is Homo sapiens. The experiment in a line: Inhibition of LIN28B (24 to 111 residues) (unknown origin) expressed in Escherichia coli BL21(DE3)/mouse let-7 interaction incubated for 15 mins in presence of Cy-3-fluorophore labeled RNA by electrophoretic mobility shift assay. The following applies: dose 2.3-150 µM.

Regarding `O=C(C1=C(O)C(=O)N(CCCc2ccccc2)C1c1ccc([N+](=O)[O-])cc1)c1ccccc1` (centres undefined), the IC50 in test [1] was 5 µM. On to `O=C(O)c1cc(N2C(=O)C(O)=C(c3nccs3)C2c2ccc([N+](=O)[O-])cc2)ccc1O` (centres undefined), for which the inhibition in test [2] came to 64.8%.

In the case of `O=C1C(=O)C2(CCCCC2=O)C(c2ccccc2)N1c1ccccc1` (centres undefined), the inhibition result in test [2] was “inactive”. As to `Cn1nnc2cc(C3C(C(=O)c4ccccc4)=C(O)C(=O)N3c3ccc(O)c(C(=O)O)c3)ccc21` (centres undefined), in test [3], the ΔTm was below 0.5 °C.

Turning to `O=C(O)c1cc(N2C(=O)C(O)=C(Cc3ccccc3)[C@H]2c2ccc([N+](=O)[O-])cc2)ccc1O`, the inhibition result in test [2] is “inactive”.

Take `O=C(C1=C(O)C(=O)N(c2cccc(-c3ccccc3)c2)[C@@H]1c1ccc([N+](=O)[O-])cc1)c1ccccc1`: the IC50 in test [1] came out at 37 µM. Consider `O=C1C(=O)C2(CCCCC2=O)C(c2ccc([N+](=O)[O-])cc2)N1c1cccc(-c2ccccc2)c1` (centres undefined), for which the inhibition result in [2] is “inactive”. On the same count and under the same terms, the same measure for `O=C(C1=C(O)C(=O)N(c2ccc(O)c(C(=O)O)c2)C1c1ccc([N+](=O)[O-])cc1)c1ccccn1` (centres undefined): 106%. Regarding `Nc1ccc(C2C(C(=O)c3ccccc3)=C(O)C(=O)N2c2ccc(O)c(C(=O)O)c2)cc1` (centres undefined), the IC50 in test [1] is 5 µM. On to `O=C(O)c1cc(N2C(=O)C(O)=C(Cc3ccccc3)[C@@H]2c2ccc([N+](=O)[O-])cc2)ccc1O`, for which the inhibition entry in test [2] is “inactive”. On the same count and under the same terms, the same measure for `O=C1C(=O)C2(CCCC2=O)C(c2ccc([N+](=O)[O-])cc2)N1c1cccc(-c2ccccc2)c1` (centres undefined): “inactive”. Still for that read-out and setting: the same measure for `CS(=O)(=O)c1ccc(C(=O)C2=C(O)C(=O)N(c3cccc(-c4ccccc4)c3)C2c2ccc([N+](=O)[O-])cc2)cc1` (centres undefined): “inactive”; for `Cc1ccc(C(=O)C2=C(O)C(=O)N(c3ccc(O)c(C(=O)O)c3)C2c2ccc([N+](=O)[O-])cc2)cc1` (centres undefined): 65.6%; for `NC1=C(C(=O)c2ccccc2)[C@@H](c2ccc([N+](=O)[O-])cc2)N(c2ccc(O)c(C(=O)O)c2)C1=O`: “inactive”.

Turning to `O=C1C(=O)C2(CCCC2=O)C(c2ccccc2)N1c1ccccc1` (centres undefined), the inhibition result in test [2] is “inactive”. On the same count and under the same terms, the same measure for `N=C1CC=CC=C1C1=C(N)C(=O)N(c2ccc(O)c(C(=O)O)c2)[C@@H]1c1ccc([N+](=O)[O-])cc1`: “inactive”; for `O=C1C(=O)C2(CCCC2=O)C(c2ccc([N+](=O)[O-])cc2)N1c1ccc2c(c1)oc1ccccc12` (centres undefined): “inactive”. For the compound `O=C(C1=C(O)C(=O)N(c2cccc(-c3ccccc3)c2)C1c1ccc([N+](=O)[O-])cc1)c1ccccc1` (racemic), the Activity entry in test [4], in [6] and in test [7] was “Dose-Dependent Effect” throughout. Besides, the “fold change (FC)” value in [5] and in [8] was 2 each time. In addition, the inhibition in test [2] was 84%; in test [9], “Dose-Dependent Effect”.

For `O=C(C1=C(O)C(=O)N(c2ccc(O)c(C(=O)O)c2)[C@H]1c1ccc([N+](=O)[O-])cc1)c1ccc(Cl)cc1`, in test [2], the inhibition result was “inactive”. Still for that read-out and setting: the same measure for `COc1ccc(C(=O)C2=C(O)C(=O)N(c3cccc(-c4ccccc4)c3)C2c2ccc([N+](=O)[O-])cc2)cc1OC` (centres undefined): “inactive”.

`O=C(C1=C(O)C(=O)N(c2cccc(-c3ccccc3)c2)C1c1ccc([N+](=O)[O-])cc1)c1ccc(F)cc1O` (centres undefined): the inhibition entry in test [2] was “inactive”. In the case of `O=C(O)c1cc(N2C(=O)c3c(c(-c4ccccc4)nn3Cc3ccccc3)C2c2ccc([N+](=O)[O-])cc2)ccc1O` (centres undefined), in [2], the inhibition result is “inactive”. Same read-out and setting: the same measure for `O=C1C(=O)C2(CCCC2=O)C(c2ccc([N+](=O)[O-])cc2)N1c1ccc2oc3ccccc3c2c1` (centres undefined): “inactive”; for `O=C(C1=C(O)C(=O)N(c2cccc(-c3ccccc3)c2)C1c1ccc([N+](=O)[O-])cc1)C1CC1` (centres undefined): “inactive”. In the case of `O=C(C1=C(O)C(=O)N(c2cccc([N+](=O)[O-])c2)[C@@H]1c1ccc([N+](=O)[O-])cc1)c1ccccc1`, the inhibition entry in test [2] is “inactive”. On the same count and under the same terms, the same measure for `O=C(C1=C(O)C(=O)N(c2ccc(O)c(C(=O)O)c2)[C@@H]1c1ccc([N+](=O)[O-])cc1)c1ccc(Cl)cc1`: “inactive”. With `O=C(C1=C(O)C(=O)N(c2cccc([N+](=O)[O-])c2)[C@H]1c1ccc([N+](=O)[O-])cc1)c1ccccc1`, the inhibition entry in test [2] was “inactive”. For the compound `O=C(O)c1cc(N2C(=O)c3nn(Cc4ccccc4)c(-c4ccccc4)c3C2c2ccc([N+](=O)[O-])cc2)ccc1O` (centres undefined), the inhibition entry in [2] is “inactive”.
